The values that follow come from PubChem BioAssay AID588780 (Sanford-Burnham Center for Chemical Genomics, 2011).

The structures appear in SMILES notation. Calls of active or inactive are those of the source.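 Rule for the calls: active = compounds whose fitted half-maximal concentration in the cell-protection dose series is at or below a set limit; inactive = the rest.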 Where only a bound is given, the exact number is not on record here.

The assay has as its system H9c2 cardiomyocytes, 2-deoxyglucose stress, ATP luminescence, 2 h. Description: protection of cardiomyocytes from 2-deoxyglucose injury, dose response, cell-based, 2-deoxyglucose stress, uHTS hits (AID 588780).
Turning to `Cc1c(N=Cc2cc(Br)cc(Br)c2O)cccc1C(=O)O`, the IC50 was > 79 µM (inactive).

Take `NC(=O)c1nsc(C(=O)N(Cc2ccco2)C(C(=O)NCc2ccccc2)c2ccc(O)cc2)c1N` (stereo not drawn): the IC50 was 10.1 µM. The result for `Oc1c(Cl)cc(Cl)cc1C=Nc1ccc(N2CCOCC2)cc1` reads 31.5 µM (inactive); that for `O=C(CCc1nc2ccccc2c(=O)[nH]1)NNC(=O)c1ccc(F)cc1`, > 79 µM (inactive); that for `COc1ccc(C(=O)Nc2cc(C)nn2-c2nc3ccccc3[nH]2)c(OC)c1`, 12.3 µM. Then `CCC(=O)N1CCN(c2ccccc2NC(=O)c2ccc(-c3cccc([N+](=O)[O-])c3)o2)CC1`, with > 79 µM (inactive); and `CC(=O)N1CCN(c2ccccc2NC(=O)c2ccc(-c3cccc([N+](=O)[O-])c3)o2)CC1`, with 5.88 µM. The result for `COc1ccc(-c2cc(NC(C)=O)c3ncc(-c4ccc(OC)c(OC)c4)n3c2)cc1OC` reads > 79 µM (inactive). `O=C(CNC(=O)c1nc[nH]c1C(=O)NCc1ccccc1)OCc1ccccc1`: the IC50 is > 79 µM (inactive). Turning to `CCOc1ccc(CC(=O)Nc2c(C(N)=O)oc3ccc(Br)cc23)cc1OCC`, the IC50 is > 79 µM (inactive). The result for `COc1ccc(N(CC(=O)Nc2ccc3c(c2)OCO3)S(=O)(=O)c2ccccc2)c(OC)c1` reads 15.4 µM; that for `COc1cccc2cc(-c3cc(=O)oc4ccc(OCC(C)=O)cc34)oc12`, > 79 µM (inactive); that for `COC(=O)c1cc(Cl)c(NC(=O)/C=C/c2ccc(OC)c(OC)c2)cc1OC`, > 79 µM (inactive). Turning to `NC(=O)C1=C(c2ccccc2)c2ccccc2C1=O`, the IC50 is > 79 µM (inactive).

With `CCOC(=O)c1cnc(SC)nc1Oc1cccc(NC(=O)c2cccc(Cl)c2Cl)c1`, the IC50 is 20.4 µM.

`CC(C)COc1nc2ccccc2c(=O)n1OCC(=O)O`: the IC50 is > 79 µM (inactive). Then `CCOC(=O)C1CCN(c2cc3c(cc2NC(=O)c2ccc(F)cc2)n(C)c(=O)n3C)CC1`, with 21.2 µM. The result for `COc1ccc(-c2cnc3c(NC=O)cc(-c4cccc(NS(C)(=O)=O)c4)cn23)cc1OC` reads 14.4 µM. Then `CC1(C)CC2CC(C)(CN2C(=O)COC(=O)Cn2[nH]c(=O)c3ccccc3c2=O)C1` (stereo not drawn), with > 79 µM (inactive); and `COc1ccc(-c2nnc(NC(=O)c3ccc(F)cc3)o2)cc1`, with > 79 µM (inactive). As for `Cc1ccc(OCC(=O)Nc2nc(-c3ccccn3)cs2)c(C)c1`, the IC50 is 16.4 µM. The result for `COc1ccc(-c2csc(/C(C#N)=C(\O)CSc3nccn3C)n2)cc1OC` reads > 79 µM (inactive); that for `CCN(CC)C(=O)c1ccc(-c2nnc(Nc3ccc(O)cc3)c3ccccc23)cc1`, 71.4 µM (inactive). Turning to `COc1ccc(COc2cc(-c3cccc(OC)c3)nc3ccc(NC(=O)c4ccc(OC)cc4)cc23)cc1`, the half-inhibitory concentration (IC50) is 5.3 µM. The result for `COc1ccc(-c2ccc3c(c2)S(=O)(=O)c2cccc(C(=O)N4CCN(c5ccccn5)CC4)c2C3=O)cc1OC` reads 13.7 µM; that for `Cc1ccc2nsnc2c1S(=O)(=O)N(Cc1ccco1)Cc1cc2cccc(C)c2[nH]c1=O`, 25.8 µM. On to `CN(C(=O)Cn1nc(C(=O)O)c2ccccc2c1=O)C1(C#N)CCCCC1`, for which the IC50 was > 79 µM (inactive). The result for `Cc1[nH]c2ccccc2c1/C=N/NC(=O)c1cc(-c2ccccc2)n[nH]1` reads > 79 µM (inactive). `CCn1nc(C(=O)OCC(=O)c2c[nH]c3ccccc23)c2ccccc2c1=O`: the IC50 was 11.6 µM. As for `Cc1cccc(C(C)C)c1NC(=O)C(C)OC(=O)Cc1n[nH]c(=O)c2ccccc12` (stereo not drawn), the IC50 was > 79 µM (inactive). The result for `O=c1[nH]c(N2CCN(c3ccccc3)CC2)nc2c1CCCC2` reads > 79 µM (inactive). Then `Brc1ccc(-c2ccc(/C=N/Nc3nc(N4CCOCC4)nc(N4CCOCC4)n3)o2)cc1`, with > 79 µM (inactive); and `Cc1cc(C)n2nc(C(=O)N/N=C/c3c4ccccc4cc4ccccc34)nc2n1`, with > 79 µM (inactive).

As for `O=c1[nH]nc(Cc2ccccn2)c2ccccc12`, the IC50 is > 79 µM (inactive). Turning to `CCN(C[C@H]1N[C@@](CC)(C(=O)OC)[C@H]2C(=O)N(Cc3ccccc3)C(=O)[C@@H]12)C(=O)c1ccc(C(C)(C)C)cc1`, the IC50 was > 79 µM (inactive). Take `O=c1[nH]c2cc([N+](=O)[O-])ccc2c2ccccc12`: the IC50 is > 79 µM (inactive). The result for `O=C1C=C(N2CCOCC2)c2cccc3cccc1c23` reads > 79 µM (inactive). The result for `Cc1ccc(C(C(=O)NCc2ccccc2)N(Cc2cccs2)C(=O)c2ccc3c(c2)OCCO3)cc1` (stereo not drawn) reads > 79 µM (inactive); that for `O=C(CCC(=O)N1CCN(C2CCCCC2)CC1)Nc1nnc(C(F)(F)F)s1`, > 79 µM (inactive); that for `CC(=O)Nc1cc(-c2cccc(C(=O)N(C)C)c2)cn2c(-c3ccc(C(C)=O)cc3)cnc12`, 15.1 µM.

`Cc1[nH]c2ccccc2c1/C=N/NC(=O)c1cccs1`: the IC50 was 40.2 µM (inactive).

In the case of `COc1cccc(-c2cnc3c(NC=O)cc(-c4cc(C)c(O)c(C)c4)cn23)c1`, the IC50 was 10.2 µM. With `COc1cc(/C=C(\C#N)C(=O)Nc2ccccc2)ccc1OCCN1CCOCC1`, the IC50 is 28.4 µM. Then `Cn1c(C(=O)NCc2cccs2)cc2c(=O)n(C)c3ccccc3c21`, with > 79 µM (inactive); and `CCCn1c(=O)c(C(=O)NCCc2ccc(Cl)cc2)c(O)c2ccccc21`, with 11 µM. Then `C/C(=N/NC(=O)c1cccs1)c1cccc(NC(=O)C2CC2)c1`, with > 79 µM (inactive); and `COc1ccc(CCn2c(=N)c(C(=O)NCC3CCCO3)cc3c(=O)n4cccc(C)c4nc32)cc1OC` (stereo not drawn), with 58 µM (inactive); and `CCOC(=O)c1nn(-c2cccc(OC)c2)c2nc(Nc3ccccc3)cc(=O)n12`, with > 79 µM (inactive). With `COc1ccc(C(C)=O)cc1COC(=O)Cc1n[nH]c(=O)c2ccccc12`, the IC50 was > 79 µM (inactive). The result for `COc1ccc2[nH]c(=O)c(-c3nnn(-c4ccc(F)cc4)n3)cc2c1` reads > 79 µM (inactive); that for `CCN1C(=O)[C@H]2[C@@H](c3ccc(-c4ccc(C(C)=O)cc4)cc3)N[C@@](C)(C(=O)OC)[C@H]2C1=O`, > 79 µM (inactive); that for `COc1ccc(NC(=O)COc2cccc3c2CCNC3=O)cc1`, > 79 µM (inactive). The result for `CCC(c1nnnn1Cc1ccccc1)N1CCC(n2c(=O)[nH]c3ccccc32)CC1` (stereo not drawn) reads > 79 µM (inactive); that for `CC(C(=O)NC1CCCC1)N(C(=O)Cn1nnc(-c2ccc(F)cc2)n1)c1ccccc1F` (stereo not drawn), > 79 µM (inactive). The result for `O=C(CNC(=O)c1cccc(F)c1)N/N=C/c1cc(Br)ccc1OC(=O)/C=C/c1ccco1` reads > 79 µM (inactive); that for `CC1(C)CC2CC(C)(CN2C(=O)COC(=O)c2n[nH]c(=O)c3ccccc23)C1` (stereo not drawn), > 79 µM (inactive). Consider `COc1ccc(C2CC(c3cccs3)n3nc(N)nc3N2)cc1` (stereo not drawn), for which the IC50 was > 79 µM (inactive).

As for `COc1ccnc(Oc2ccccc2)c1C(=O)N/C=N/OCc1ccc(F)cc1Cl`, the IC50 is > 79 µM (inactive).

In the case of `COc1cc(NC(=O)c2cc([N+](=O)[O-])ccc2NC(=O)CN2CCN(c3ccccn3)CC2)cc(OC)c1`, the IC50 is > 79 µM (inactive).

For `NC(=O)c1cccc(-c2coc3c(C(=O)NCCc4ccccc4)cccc23)c1`, the IC50 was > 79 µM (inactive). Then `O=C(NO)c1ccc(C(=O)N(C2CCCCC2)C2CCCCC2)cc1`, with > 79 µM (inactive); and `Cc1nn(-c2ccccc2)c(C)c1/C=N/NC(=O)c1cc(C(C)(C)C)[nH]n1`, with 32.1 µM (inactive). The result for `CC(C)(C)OC(=O)CNC(=O)c1[nH]cnc1C(=O)NC(c1ccccc1)c1ccccc1` reads 19.2 µM; that for `CC(=O)NCCNc1nc2c(-c3ccccc3)nnn2c2ccccc12`, > 79 µM (inactive). Then `COc1cc(NC(=O)c2c(OC)cccc2OC)ccc1NC(=O)c1cc2ccccc2o1`, with 12.7 µM; and `COc1ccccc1-c1cc2nc(-c3ccccc3)cc(N3CCN(C(=O)c4ccoc4)CC3)n2n1`, with > 79 µM (inactive); and `CC(C)(C)OC(=O)CNC(=O)c1[nH]cnc1C(=O)Nc1ccc(CNC(=O)OC(C)(C)C)cc1`, with > 79 µM (inactive). `CCN(CC(=O)Nc1cc(Cl)ccc1C)C(=O)C1CCN(c2ncnc3sc(C)c(C)c23)CC1`: the IC50 is > 79 µM (inactive). The result for `CSc1nsc(SC)c1C(=O)N1CCN(S(=O)(=O)c2ccc(C)cc2)C1C(C)C` (stereo not drawn) reads 21.7 µM. The result for `COc1ccccc1NC(=O)COc1cccc2c1CCNC2=O` reads > 79 µM (inactive); that for `CC(OC(=O)Cc1n[nH]c(=O)c2ccccc12)C(=O)Nc1cccc([N+](=O)[O-])c1` (stereo not drawn), 44.4 µM (inactive); that for `CCCCn1nc(C(=O)Oc2ccc3c(C)cc(=O)oc3c2)c2ccccc2c1=O`, > 79 µM (inactive). Then `O=C1C2C3C=CC(CC3)C2C(=O)N1c1cccc(Br)c1` (stereo not drawn), with > 79 µM (inactive); and `O=C(CCc1nc2ccccc2c(=O)[nH]1)N1CCCc2ccccc21`, with > 79 µM (inactive). As for `COc1cccc(-c2nnc(NC(=O)c3ccc(S(=O)(=O)N(CC(C)C)CC(C)C)cc3)o2)c1`, the IC50 was > 79 µM (inactive). The result for `Cc1ccc(Nc2nc(N)[nH]c(=O)c2N=O)cc1` reads > 79 µM (inactive); that for `CCOc1cc(/C=C/c2nc3ccccc3c(=O)[nH]2)ccc1O`, > 79 µM (inactive); that for `N/C(=N\NS(=O)(=O)c1ccccc1)c1ccccn1`, > 79 µM (inactive).

Consider `CCCN1C(=O)/C(=C/c2nc3ccccc3c(=O)[nH]2)c2ccccc21`, for which the IC50 was 11.2 µM. Then `COc1cc(OC)c(-c2nn3c(-c4ccco4)nnc3s2)cc1OC`, with 6.54 µM; and `CCOCCn1ccc2c(OCC(=O)Nc3cc(OC)ccc3OC)cccc2c1=O`, with > 79 µM (inactive); and `COc1ccccc1OCC(=O)Nc1sc2c(c1C(=O)NCC1CCCO1)CCC2` (stereo not drawn), with > 79 µM (inactive). Regarding `COc1ccc(N(CC(=O)NCCSc2ccccc2)S(=O)(=O)c2ccccc2)c(OC)c1`, the IC50 was 12.3 µM.
